We go through 8 molecules from US8357673B2, “4-arylazo-3,5-diamino-pyrazole compounds and use thereof” (Univerzita Palackeho V Olomouci, priority 2004, dated 2013).

Where two headings read alike, the source gives them in different places. A value given as a limit tells only on which side of the number the result lay.

One series concerns the target T1, CDK1/cyclin B (Homo sapiens, UniProt P06493).
T1 construct: made in house; host or cells: Sf9 insect cells (baculovirus co-infection)
The series can be described thus: CDK1/cyclin B kinase inhibition assay (histone H1, [γ-33P]ATP). Type of series: biochemical. Conditions: averaged from triplicates; 15 μM ATP. As to the method: (§1) CDK1/cyclin B and CDK2/cyclin E kinases were produced in Sf9 insect cells coinfected with appropriate baculoviral constructs. The cells were harvested 70 h post infection, incubated in lysis buffer (50 mM Tris pH 7.4, 150 mM NaCl, 5 mM EDTA, 20 mM NaF, 1% Tween 20, 1 mM DTT, 0.1 mM PMSF, 0.5 μg/ml leupeptine, 1 μg/ml aprotonine) for 30 min on ice and the soluble fraction was recovered by centrifugation at 20.000 g for 10 min. The enzymes were purified on NiNTA column (Qiagen), stored at 4° C. and used within a week. To carry out the enzyme inhibition assays under linear conditions, the final point test system for kinase activity measurement was used. Kinase was added to reaction mixture in such a way as to obtain linear activity with respect to the concentration of enzyme and with respect to time. For determination of kinase inhibition the reaction mixture contained 1 mg/ml histone H1 (type III-S, Sigma) in the presence of 15 μM ATP, 0.05 μCi [γ-^33P]ATP and the tested compound in a final volume of 10 μl; all in reaction buffer (50 mM HEPES, 10 mM MgCl2, 5 mM EGTA, 10 mM 2-glycerolphosphate, 1 mM NaF, 1 mM DTT, pH 7.4). After 20 min incubation, the reactions were stopped by the addition of 5 μl of a 3% H3PO4, aliquots were spotted on P-81 phosphocellulose (Whatman, USA) that was subsequently washed 3× with 5% H3PO4 and finally air dried. The measurements of kinase inhibition employed digital image analyzer BAS-1800 (Fujifilm, Japan). Kinase activity was usually expressed as a percentage of maximum activity. […] For the purpose of kinetic analysis, the activity was expressed as arbitrary units (AU) of digital image analyzer signal.

The target in the next series is T2, CDK2/cyclin E (Homo sapiens, UniProt P24941).
T2 construct: made in house; host or cells: Sf9 insect cells (baculovirus co-infection)
As to the kind of experiment: CDK2/cyclin E kinase inhibition assay (histone H1, [γ-33P]ATP). Type of series: biochemical. Conditions: averaged from triplicates; 15 μM ATP. On the procedure:
as §1

A short description of series [1]: In vitro cytotoxicity, Calcein AM, 72 h. In kind it is cell-based, human. Conditions: human, at 100 μM. On the procedure:
(§2) Tested drugs were added to the cell cultures in six different concentration and kept at 37° C. and 5% CO2 for three days.
(§3) The cells, cultured in DMEM (supplemented with 10% fetal calf serum, 4 mM glutamine, 100 IU/ml penicillin, 100 μg/ml streptomycin) in a humidified CO2 incubator at 37° C., were redistributed into 96-well microtitre plates (10.000 cells per well). After 12 h preincubation, tested compounds in six-fold dilutions were added. Treatment of cells with the tested compounds (in the 1-100 μM range) lasted for 72 h.

The subject of series [2] is G 361 (human malignant melanoma). The series can be described thus: In vitro cytotoxicity, Calcein AM, 72 h. Type of series: cell-based. Conditions: 72 h; for IC50: Calcein AM, triplicates, read-out: IC50 (μM) G361. On the procedure: as §2, §3
For series [3], the system named is HOS (human osteogenic sarcoma). As to the kind of experiment: In vitro cytotoxicity, Calcein AM, 72 h. Conditions: for IC50: Calcein AM, triplicates, read-out: IC50 (μM) HOS. In kind it is cell-based. On the procedure:
as §2, §3

Series [4] concerns K562 (human chronic myeloblastic leukemia). The series can be described thus: In vitro cytotoxicity, Calcein AM, 72 h. The following applies: 72 h; for IC50: Calcein AM, triplicates, read-out: IC50 (μM) K562. Type of series: cell-based. On the procedure:
as §2, §3

In series [5] the test system is MCF7 (human breast adenocarcinoma). The series can be described thus: In vitro cytotoxicity, Calcein AM, 72 h. In kind it is cell-based. The following applies: 72 h; for IC50: Calcein AM, triplicates, read-out: IC50 (μM) MCF7. As to the method:
as §2, §3

The subject of a further series is CDK1 and CDK2. As to the kind of experiment: CDK inhibition, for CDK1 and CDK2 together. Type of series: biochemical. On the procedure:
as §1, with “After 20 min incubation, the reactions were stopped by the addition of 5 μl of a 3% H3PO4, aliquots were spotted on P-81 phosphocellulose (Whatman, USA) that was subsequently washed 3× with 5% H3PO4 and finally air dried. The measurements of kinase inhibition employed digital image analyzer BAS-1800 (Fujifilm, Japan).” left out

Another series can be described thus: in vitro. Conditions: human. In kind it is cell-based. On the procedure: The following cell lines were used: HELA (human cervical carcinoma), MCF7 (human breast adenocarcinoma), NIH 3T3 (mouse fibroblasts), HOS (human osteogenic sarcoma), HL 60 (human promyelocytic leukemia), G 361 (human malignant melanoma), K562 (human chronic myeloblastic leukemia), CEM (human lymphoblastoid leukaemia). Tested drugs were added to the cell cultures in six different concentration and kept at 37° C. and 5% CO2 for three days.
as §3, with “h. At the end of this period, the cells were fed for 1 h with Calcein AM and the fluorescence of the live cells was measured at 485 nm/538 nm (ex/em) with a Fluoroskan Ascent (Labsystems, Finland).” for “h.”

A further series relates to MAPK1. Conditions: Knockaert et al 2000, Cohen 2003; cited from earlier work.
The target in a further series is CDK7 (Homo sapiens, UniProt P50613). Conditions: Knockaert et al 2000, Cohen 2003; cited from earlier work.
[6] abbreviates: G 361 cells (human malignant melanoma), 72 h, read-out: % of viable cells G361.
Setting [7] is: HOS cells (human osteogenic sarcoma), read-out: % of viable cells HOS.
Where [8] appears, read: K562 cells (human chronic myeloblastic leukemia), 72 h, read-out: % of viable cells K562.
Setting [9] is: MCF7 cells (human breast adenocarcinoma), 72 h, read-out: % of viable cells MCF7.

T1 sequence (P06493 whole entry): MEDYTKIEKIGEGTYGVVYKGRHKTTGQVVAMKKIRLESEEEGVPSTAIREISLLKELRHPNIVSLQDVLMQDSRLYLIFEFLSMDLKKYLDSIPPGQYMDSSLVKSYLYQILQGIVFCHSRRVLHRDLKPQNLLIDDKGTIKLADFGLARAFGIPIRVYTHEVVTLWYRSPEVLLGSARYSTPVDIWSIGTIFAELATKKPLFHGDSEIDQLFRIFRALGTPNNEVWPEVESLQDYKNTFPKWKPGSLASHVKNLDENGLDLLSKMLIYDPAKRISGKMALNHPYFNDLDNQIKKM
T1 sequence (P14635 whole entry partner): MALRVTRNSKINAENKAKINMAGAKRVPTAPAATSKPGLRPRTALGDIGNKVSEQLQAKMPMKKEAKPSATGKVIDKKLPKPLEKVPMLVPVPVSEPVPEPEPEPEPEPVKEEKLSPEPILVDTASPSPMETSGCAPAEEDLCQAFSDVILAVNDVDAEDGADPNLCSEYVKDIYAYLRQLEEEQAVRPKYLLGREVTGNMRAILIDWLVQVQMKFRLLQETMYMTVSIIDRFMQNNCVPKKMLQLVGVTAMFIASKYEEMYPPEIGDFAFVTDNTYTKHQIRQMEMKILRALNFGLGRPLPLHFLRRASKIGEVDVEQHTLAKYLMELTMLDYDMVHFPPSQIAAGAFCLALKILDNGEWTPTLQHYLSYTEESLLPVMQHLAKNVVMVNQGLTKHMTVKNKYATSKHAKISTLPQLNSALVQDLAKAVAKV
Sequence of CDK7 (P50613 whole entry, species assumed): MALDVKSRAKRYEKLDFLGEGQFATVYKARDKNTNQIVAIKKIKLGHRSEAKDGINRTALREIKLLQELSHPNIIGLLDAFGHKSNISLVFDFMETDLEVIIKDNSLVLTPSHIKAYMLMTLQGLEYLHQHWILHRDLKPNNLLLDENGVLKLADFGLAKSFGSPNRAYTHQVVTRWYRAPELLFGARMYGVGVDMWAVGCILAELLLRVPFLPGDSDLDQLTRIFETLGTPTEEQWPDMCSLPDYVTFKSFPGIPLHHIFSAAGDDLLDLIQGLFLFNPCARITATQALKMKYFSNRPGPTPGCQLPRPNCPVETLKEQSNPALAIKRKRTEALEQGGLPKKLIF
Sequence of CDK7 (P51946 whole entry partner, species assumed): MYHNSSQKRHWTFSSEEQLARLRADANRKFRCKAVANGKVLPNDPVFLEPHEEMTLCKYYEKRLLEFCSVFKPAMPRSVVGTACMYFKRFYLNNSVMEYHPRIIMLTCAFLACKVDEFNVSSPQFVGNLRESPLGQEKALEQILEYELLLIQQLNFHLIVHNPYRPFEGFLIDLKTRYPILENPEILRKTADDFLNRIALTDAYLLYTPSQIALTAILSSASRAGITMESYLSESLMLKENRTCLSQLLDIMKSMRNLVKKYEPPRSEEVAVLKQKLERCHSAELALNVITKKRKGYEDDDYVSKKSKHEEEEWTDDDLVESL

The IC50 is the concentration at which inhibition is half-maximal. Turning to `Nc1n[nH]c(N)c1N=Nc1ccccc1[N+](=O)[O-]` [Compound 7b, 3,5-diamino-4-(2-nitro)phenylazo-pyrazole], the IC50 on CDK1/cyclin B is 2.6 µM; on CDK2/cyclin E it was 6.1 µM; in series [2] (Homo sapiens, G-361), over 100 µM; in series [3] (Homo sapiens), over 100 µM; in [4] (Homo sapiens, K562), 100 ± 10 µM; in series [5] (Homo sapiens, MCF7), over 100 µM. The viability at 72 h, 100 µM in [1] (setting [6]) was 58%; in series [1] (setting [7]), 57%; in series [1] (setting [8]) it was 48%; in series [1] (setting [9]), 62%.

For the molecule `Nc1n[nH]c(N)c1/N=N/c1ccccc1O` [Compound 10b, 3,5-diamino-4-(2-hydroxy)phenylazo-pyrazole], the IC50 was 3.6 µM at CDK1/cyclin B; over 100 µM in series [2] (Homo sapiens, G-361); over 100 µM in series [3] (Homo sapiens); over 100 µM in [4] (Homo sapiens, K562); over 100 µM in series [5] (Homo sapiens, MCF7). The viability at 72 h, 100 µM is 74% in series [1] (setting [6]), 84% in series [1] (setting [7]), 72% in series [1] (setting [8]) and 72% in series [1] (setting [9]).

For the molecule `Nc1n[nH]c(N)c1/N=N/c1cccc(O)c1` [Compound 11b, 3,5-diamino-4-(3-hydroxy)phenylazo-pyrazole], the IC50 was 6 µM on CDK1/cyclin B; over 100 µM in [2] (Homo sapiens, G-361); over 100 µM in [3] (Homo sapiens); over 100 µM in [4] (Homo sapiens, K562); over 100 µM in [5] (Homo sapiens, MCF7). For the same molecule, the viability at 72 h, 100 µM in [1] (setting [6]) was 70%; in [1] (setting [7]), 83%; in series [1] (setting [8]), 53%; in series [1] (setting [9]), 71%.

In the case of `Nc1n[nH]c(N)c1N=Nc1ccccc1CO` [Compound 16b, 3,5-diamino-4-(2-hydroxymethyl)phenylazo-pyrazole], the IC50 against CDK1/cyclin B was 21 µM; on CDK2/cyclin E, 17 µM; in [2] (Homo sapiens, G-361), over 100 µM; in series [3] (Homo sapiens), over 100 µM; in [4] (Homo sapiens, K562) it was over 100 µM; in series [5] (Homo sapiens, MCF7), over 100 µM. For the same molecule, the viability at 72 h, 100 µM was 84% in series [1] (setting [6]), 87% in [1] (setting [7]), 86% in [1] (setting [8]) and 51% in series [1] (setting [9]).

As to `NCc1ccc(/N=N/c2c(N)n[nH]c2N)cc1` [Compound 17b, 3,5-diamino-4-(4-aminomethyl)phenylazo-pyrazole], the IC50 on CDK1/cyclin B and on CDK2/cyclin E was over 100 µM throughout. Further, in the series on CDK1 and CDK2, the “CDK inhibitory activity (in words)” value is “low activity (almost zero)”.

As to `Nc1n[nH]c(N)c1N=Nc1cccc2c1CCCC2` [Compound 30b], the IC50 against CDK1/cyclin B is over 100 µM; at CDK2/cyclin E, over 100 µM; in series [2], 77 ± 4 µM; in [3] it was 92 ± 5 µM; in [4], 55 ± 1 µM; in [5], 81 ± 9 µM. For the same molecule, in [2] (at 100 μM), the “% of viable cells G361” value is “(27 ± 5) %”. The “% of viable cells HOS” value in series [3] (at 100 μM) is listed as “(32 ± 6%)”. Also, in series [4] (at 100 μM), the “% of viable cells K562” value is “(26 ± 7) %”. Also, the “% of viable cells MCF7” value in series [5] (at 100 μM) is given as “(39 ± 10%)”. For the same molecule, the “CDK inhibitory activity (in words)” value in the series on CDK1 and CDK2 was “only a weak impact on CDK activity”.

In turn, `Cn1cnc2c(NCc3ccccc3)nc(NCCO)nc21` [olomoucine, reference compound] displayed an IC50 at 72 h in the series “in vitro” of over 100 µM.

On to `CC[C@H](CO)Nc1nc(NCc2ccccc2)c2ncn(C(C)C)c2n1` [roscovitine], for which, in the series on MAPK1, the “effect on MAPK1 (in words)” value is recorded as “strong effect”. The “effect on CDK7 (in words)” value at CDK7 is “strong effect”.
